Assay results: ChEMBL document CHEMBL6153025, “Multidrug-resistant bacteria quorum-sensing inhibitors: A particular focus on Pseudomonasaeruginosa” (Eur J Med Chem, 2025)
≈ marks a conversion by molar mass, not a printed value.

Assays:
Pseudomonas aeruginosa [1] = experiment: Antimicrobial activity against Pseudomonas aeruginosa PAO1 assessed as inhibition of bacterial growth measured for 18 hrs by CLSI-based broth microdilution method; assay type: functional
Pseudomonas aeruginosa [2] = experiment: Antibacterial activity against Pseudomonas aeruginosa ATCC 27853 assessed as bacterial growth inhibition by agar diffusion assay; assay type: functional
Pseudomonas aeruginosa [3] = experiment: Antibacterial activity against Pseudomonas aeruginosa ATCC 27853; assay type: functional, organism-based
Pseudomonas aeruginosa [4] = experiment: Antibiofilm activity against Pseudomonas aeruginosa ATCC 27853 assessed as reduction in biofilm formation at 10 uM relative to control; assay type: functional; set-up: scale not given: the % may be the effect or the level left
[5] = Inhibition of quorum sensing system in Pseudomonas aeruginosa PAO1-rhlA-gfp assessed as inhibition of rhlA expression at 50 ug/ml incubated for 8 hrs by microplate reader based analysis relative to control; conditions: dose 50.0 µg/ml
Pseudomonas aeruginosa [6] = experiment: Antivirulence activity against Pseudomonas aeruginosa PAO1 assessed as reduction in pyocyanin production at 20 ug/ml relative to control; assay type: functional; set-up: scale not given: the % may be the effect or the level left; conditions: dose 20 µg/ml
Pseudomonas aeruginosa [7] = experiment: Antivirulence activity in Pseudomonas aeruginosa PAO1 assessed as reduction in elastase production at 10 uM incubated for 24 hrs by elastin-congo red dye based absorbance assay relative to control; assay type: functional; set-up: scale not given: the % may be the effect or the level left
Pseudomonas aeruginosa [8] = experiment: Antibiofilm activity against Pseudomonas aeruginosa PAO1 assessed as inhibition of biofilm formation at 16 microg/ml incubated for 20 hrs by crystal violet staining based analysis; assay type: functional; set-up: scale not given: the % may be the effect or the level left; conditions: dose 16 µg/ml
[9] = Inhibition of quorum sensing system in Pseudomonas aeruginosa PAO1 expressing lasI-gfp assessed as inhibition of lasI expression at 50 ug/ml incubated for 8 hrs under shaking condition by microplate reader based analysis relative to control; conditions: dose 50.0 µg/ml
Pseudomonas aeruginosa [10] = experiment: Antibacterial activity against Pseudomonas aeruginosa PAO1 assessed as reduction in bacterial growth; assay type: functional
Pseudomonas aeruginosa [11] = experiment: Antibacterial activity against Pseudomonas aeruginosa ATCC 15442 assessed as reduction in bacterial cell growth incubated for 18 hrs by two fold serial microdilution method; assay type: functional
Pseudomonas aeruginosa [12] = experiment: Antibiofilm activity against Pseudomonas aeruginosa ATCC 15442 assessed as inhibition of biofilm formation at 16 ug/ml relative to control; assay type: functional; set-up: scale not given: the % may be the effect or the level left; conditions: dose 16 µg/ml
Pseudomonas aeruginosa [13] = experiment: Antibacterial activity against Pseudomonas aeruginosa PAO1 assessed as reduction in bacterial growth by broth microdilution method; assay type: functional, organism-based
Pseudomonas aeruginosa [14] = experiment: Downregulation of rhlA mRNA level in Pseudomonas aeruginosa PAO1 at 10 uM by RT-qPCR analysis; assay type: functional
[15] = Inhibition of quorum sensing system in Pseudomonas aeruginosa PAO1 expressing lasB-gfp assessed as inhibition of lasB expression at 50 ug/ml incubated for 8 hrs by microplate reader based analysis relative to control; conditions: dose 50.0 µg/ml
Pseudomonas aeruginosa [16] = experiment: Antibiofilm activity against Pseudomonas aeruginosa ATCC 27853 assessed as reduction in biofilm biomass at 16 ug/ml relative to control; assay type: functional; set-up: scale not given: the % may be the effect or the level left; conditions: dose 16 µg/ml
Pseudomonas aeruginosa [17] = experiment: Anti-virulence activity against Pseudomonas aeruginosa PAO1-L assessed as reduction in pyocyanin production at 10 uM incubated for 24 hrs by absorbance based analysis relative to control; assay type: functional; set-up: scale not given: the % may be the effect or the level left
[18] = Inhibition of quorum sensing system in Pseudomonas aeruginosa PAO1 expressing lasB-gfp
Pseudomonas aeruginosa [19] = experiment: Antibacterial activity against Pseudomonas aeruginosa PAO1-L; assay type: functional, organism-based
Pseudomonas aeruginosa [20] = experiment: Antivirulence activity in Pseudomonas aeruginosa PAO1 assessed as reduction in pyocyanin production at 10 uM incubated for 24 hrs by absorbance based analysis relative to control; assay type: functional; set-up: scale not given: the % may be the effect or the level left
Pseudomonas aeruginosa [21] = experiment: Antibiofilm activity against Pseudomonas aeruginosa PAO1 assessed as inhibition of biofilm formation incubated for 24 hrs by crystal violet staining based assay; assay type: functional, organism-based; conditions: PAO1, 24 h
Pseudomonas aeruginosa [22] = experiment: Anti-virulence activity in Pseudomonas aeruginosa PAO1 assessed as reduction in pyoverdine production at 160 ug/ml by absorbance based analysis relative to control; assay type: functional; set-up: scale not given: the % may be the effect or the level left; conditions: dose 160 µg/ml
Pseudomonas aeruginosa [23] = experiment: Antimicrobial activity against Pseudomonas aeruginosa assessed as reduction in microbial growth; assay type: functional, organism-based
Pseudomonas aeruginosa [24] = experiment: Antibiofilm activity against Pseudomonas aeruginosa assessed as reduction in biofilm formation incubated for 24 hrs relative to control; assay type: functional; set-up: scale not given: the % may be the effect or the level left
Pseudomonas aeruginosa [25] = experiment: Antibiofilm activity against Pseudomonas aeruginosa PAO1 assessed as inhibition of biofilm formation at 1 to 100 uM incubated for 24 hrs by crystal violet staining based assay relative to control; assay type: functional; set-up: scale not given: the % may be the effect or the level left; conditions: dose 1-100 µM
Pseudomonas aeruginosa [26] = experiment: Antibacterial activity against Pseudomonas aeruginosa PAO1 by broth microdilution method; assay type: functional
Pseudomonas aeruginosa [27] = experiment: Downregulation of pqsA mRNA expression in Pseudomonas aeruginosa PAO1; assay type: functional
Pseudomonas aeruginosa [28] = experiment: Antibiofilm activity against Pseudomonas aeruginosa PAO1 assessed as inhibition of biofilm formation at 16 ug/ml incubated for 24 hrs by crystal violet staining based assay relative to control; assay type: functional; set-up: scale not given: the % may be the effect or the level left; conditions: dose 16 µg/ml
Pseudomonas aeruginosa [29] = experiment: Downregulation of pqsR mRNA expression in Pseudomonas aeruginosa PAO1; assay type: functional
Pseudomonas aeruginosa [30] = experiment: Downregulation of rhlI mRNA expression in Pseudomonas aeruginosa PAO1 at 160 ug/ml incubated for 6 hrs by RT-qPCR analysis relative to control; assay type: functional; conditions: dose 160 µg/ml
Pseudomonas aeruginosa [31] = experiment: Downregulation of lasB mRNA expression in Pseudomonas aeruginosa PAO1 at 160 ug/ml incubated for 6 hrs by RT-qPCR analysis relative to control; assay type: functional; conditions: dose 160 µg/ml
Pseudomonas aeruginosa [32] = experiment: Downregulation of lasR mRNA expression in Pseudomonas aeruginosa PAO1 at 16 ug/ml relative to control; assay type: functional; conditions: dose 16 µg/ml
Pseudomonas aeruginosa [33] = experiment: Antivirulence activity against Pseudomonas aeruginosa PAO1 assessed as inhibition of pyocyanin production at 25 ug/ml incubated for 16 hrs under agitation by photometric analysis relative to control; assay type: functional; set-up: scale not given: the % may be the effect or the level left; conditions: dose 25 µg/ml
Pseudomonas aeruginosa [34] = experiment: Downregulation of lasI mRNA expression in Pseudomonas aeruginosa PAO1 at 16 ug/ml relative to control; assay type: functional; conditions: dose 16 µg/ml
Pseudomonas aeruginosa [35] = experiment: Downregulation of rhlR mRNA expression in Pseudomonas aeruginosa PAO1 at 160 ug/ml incubated for 6 hrs by RT-qPCR analysis relative to control; assay type: functional; conditions: dose 160 µg/ml
Pseudomonas aeruginosa [36] = experiment: Downregulation of lasA mRNA expression in Pseudomonas aeruginosa PAO1 at 160 ug/ml incubated for 6 hrs by RT-qPCR analysis relative to control; assay type: functional; conditions: dose 160 µg/ml
Pseudomonas aeruginosa [37] = experiment: Antibacterial activity against Pseudomonas aeruginosa PAO1 assessed as bacterial growth inhibition after 24 hrs by liquid microdilution method; assay type: functional
Pseudomonas aeruginosa [38] = experiment: Antivirulence activity against Pseudomonas aeruginosa PAO1 assessed as inhibition of pyocyanin production at 16 ug/ml relative to control; assay type: functional; set-up: scale not given: the % may be the effect or the level left; conditions: dose 16 µg/ml
Pseudomonas aeruginosa [39] = experiment: Antivirulence activity against Pseudomonas aeruginosa PAO1 assessed as inhibition of rhamnolipid production at 16 ug/ml relative to control; assay type: functional; set-up: scale not given: the % may be the effect or the level left; conditions: dose 16 µg/ml

SMILES: O=c1cc(-c2ccc(O)cc2)oc2cc(O)cc(O)c12 [APIGENIN]
- MIC (Pseudomonas aeruginosa [1]): 0.48 µg/mL (≈ 1.78 µM)

SMILES: COc1cccc(C(=O)CSc2nc3ccccc3s2)c1
- MIC (Pseudomonas aeruginosa [2]): > 512 µg/mL
- IC50 (Pseudomonas aeruginosa [3]): 182 µg/mL (≈ 578 µM)

SMILES: CCCCCCCCSSc1nc2ccccc2c(=O)[nH]1
- Activity (Pseudomonas aeruginosa [4]): 46%

SMILES: O=C(CCc1ccc(Br)cc1)NC1CCOC1=O (configuration not stated)
- inhibition [5]: 80%
- Activity (Pseudomonas aeruginosa [6]): 19%
- Activity (Pseudomonas aeruginosa [7]): 44%
- Activity (Pseudomonas aeruginosa [8]): 48%
- inhibition [9]: 87%
- MIC (Pseudomonas aeruginosa [10]): 10 µM (≈ 3.12 µg/mL)

SMILES: O=c1c2c(Cl)cccc2ncn1Cc1ccc(NCc2ccco2)cc1
- MIC (Pseudomonas aeruginosa [11]): > 50 µM
- Activity (Pseudomonas aeruginosa [12]): 26.7%

SMILES: COc1ccc(C(=O)CSc2nc3ccccc3s2)c(OC)c1
- MIC (Pseudomonas aeruginosa [2]): > 512 µg/mL
- IC50 (Pseudomonas aeruginosa [3]): 45.5 µg/mL (≈ 132 µM)

SMILES: O=c1c(-c2ccc(O)cc2)coc2cc(O)ccc12 [DAIDZEIN]
- MIC (Pseudomonas aeruginosa [1]): 45 µg/mL (≈ 177 µM)

SMILES: O=C1O/C(=C\Br)C=C1Br
- IC50 (Pseudomonas aeruginosa [13]): 17.4 µM

SMILES: COc1ccc(-c2coc3cc(O)cc(O)c3c2=O)cc1 [BIOCHANIN]
- MIC (Pseudomonas aeruginosa [1]): 0.48 µg/mL (≈ 1.69 µM)

SMILES: COc1cc(C)c(C(=O)Oc2cc(C)c(C(=O)O)c(O)c2)c(O)c1 [EVERNIC ACID]
- Activity (Pseudomonas aeruginosa [14]): 50%
- inhibition [15]: 54%

SMILES: COc1ccc(/C=C/C(=O)O)cc1OC
- Activity (Pseudomonas aeruginosa [16]): 15.79%

SMILES: Cc1nc2cccc(Br)c2c(=O)n1/N=C/C=C/c1ccccc1
- MIC (Pseudomonas aeruginosa [11]): > 50 µM
- Activity (Pseudomonas aeruginosa [12]): 58%

SMILES: N#CCc1ccc(OC[C@H](O)Cn2cnc3ccc(Cl)cc3c2=O)cc1
- Activity (Pseudomonas aeruginosa [17]): 80%
- Activity (Pseudomonas aeruginosa [4]): 52%
- IC50 [18]: 1 µM
- IC50 (Pseudomonas aeruginosa [19]): 4.3 µM

SMILES: CCCCCCCCn1ccnc1
- Activity (Pseudomonas aeruginosa [20]): 97.37%
- IC50 (Pseudomonas aeruginosa [21]): 0.74 µM
- Activity (Pseudomonas aeruginosa [22]): 88%

SMILES: O=C1c2ccc(NS(=O)(=O)c3ccc(F)cc3)cc2OC2C=C(O)C=C(O)C12 (configuration not stated)
- IC50 (Pseudomonas aeruginosa [23]): 100 µM
- Activity (Pseudomonas aeruginosa [24]): 78%

SMILES: Oc1ccc([C@H]2Oc3cc(O[C@H]4OC[C@@H](O)[C@@H](O)[C@@H]4O)cc(O)c3C[C@H]2O)cc1O
- Activity (Pseudomonas aeruginosa [25]): 66%

SMILES: Cc1ccc(CCOC(=O)/C=C/c2ccc(O)c(O)c2)cc1
- Activity (Pseudomonas aeruginosa [16]): 22.67%

SMILES: Cc1nc2ccccc2nc1CSc1nc2ccccc2c(=O)n1-c1ccc(F)cc1
- MIC (Pseudomonas aeruginosa [26]): 500 µM (≈ 214 µg/mL)
- Activity (Pseudomonas aeruginosa [27]): 90%
- Activity (Pseudomonas aeruginosa [28]): 46.37%
- Activity (Pseudomonas aeruginosa [29]): 90%

SMILES: O=C(O)c1ccccc1O [SALICYLIC ACID]
- Activity (Pseudomonas aeruginosa [30]): 82%
- Activity (Pseudomonas aeruginosa [31]): 22%
- Activity (Pseudomonas aeruginosa [32]): 78%
- Activity (Pseudomonas aeruginosa [33]): 32%
- Activity (Pseudomonas aeruginosa [34]): 60%
- IC50 (Pseudomonas aeruginosa [21]): 3.62 µM
- Activity (Pseudomonas aeruginosa [35]): 70%
- Activity (Pseudomonas aeruginosa [36]): 31%
- MIC (Pseudomonas aeruginosa [37]): 11.3 µM (≈ 1.57 µg/mL)

SMILES: CCn1ccnc1
- IC50 (Pseudomonas aeruginosa [21]): 0.4 µM

SMILES: Oc1ccc2c(c1)OC[C@](O)(Cc1ccc(O)c(O)c1)[C@H]2O [SAPPANOL]
- Activity (Pseudomonas aeruginosa [25]): 54.26%

SMILES: COc1ccc([C@H](CNC(=O)Nc2ccccc2F)c2c[nH]c3ccccc23)cc1OC
- MIC (Pseudomonas aeruginosa [26]): 500 µM (≈ 217 µg/mL)
- Activity (Pseudomonas aeruginosa [27]): 90%
- Activity (Pseudomonas aeruginosa [38]): 74.27%
- Activity (Pseudomonas aeruginosa [39]): 66.4%
- Activity (Pseudomonas aeruginosa [28]): 67.32%
- Activity (Pseudomonas aeruginosa [29]): 90%

SMILES: Nc1ccc(S(=O)(=O)Nc2ccc3c(c2)OC2C=C(O)C=C(O)C2C3=O)cc1 (configuration not stated)
- IC50 (Pseudomonas aeruginosa [23]): 100 µM
- Activity (Pseudomonas aeruginosa [24]): 50%

SMILES: CC(C)OP(=O)(NCCCCOc1cc(O)c2c(=O)cc(-c3ccccc3)oc2c1)OC(C)C
- IC50 (Pseudomonas aeruginosa [23]): 100 µM
